# How the values were obtained:
# [1] = system: granulation tissue; assay: Subcutaneous Ivalon sponge implantation, histological analysis of granulation tissue formation; format: in vivo, Sprague-Dawley rats; settings: no collagen
# [2] = system: pressure ulcer; assay: Clinical double-blind dose-response trial in pressure ulcers; format: in vivo, patients; settings: for Results: twice daily
# Experimental: Five patients were subjected to a dose-response trial using sucrose octasulfate in water. The test was a double-blind trial with four treatment arms, 0.1, 1.0, or 10mg/ml or placebo (sterile water for irrigation). Patients were entered following debridement of the study pressure ulcer and a gauze sponge was saturated with sucrose octasulfate solution (i.e. sucrose octasulfate in sterile water vehicle) or placebo and packed into the ulcer crater, then covered with biobrane dressing to keep the area moist. Treatments were applied twice daily for a 30 day interval for four patients and for three weeks for the fifth patient.
# The patient population was bedridden comatose adults with chronic ulcers having failed with some form of previous treatment(s). The patients were kept on the same ward as they had been during months prior to the trials so nursing care was uniform prior to and during the study. Thus, any response is favourable. The first four cases are nearly uniform in that three of four treatment ulcers were trochanteric.
compound,measurement,setting,value
"O=S(=O)([O-])OC[C@H]1O[C@@](COS(=O)(=O)[O-])(O[C@H]2O[C@H](COS(=O)(=O)[O-])[C@@H](OS(=O)(=O)[O-])[C@H](OS(=O)(=O)[O-])[C@H]2OS(=O)(=O)[O-])[C@@H](OS(=O)(=O)[O-])[C@@H]1OS(=O)(=O)[O-].[K+].[K+].[K+].[K+].[K+].[K+].[K+].[K+] [Sucrose Octasulfate, potassium sucrose octasulfate]",hemorrhage in sponge,[1]; 10.0 mg/ml sucrose octasulfate in Hydron,local hemorrhage
same,histologic appearance of sponge (granulation tissue),[1]; 50 µl of Hydron containing either 1.0 mg/ml or 0.1 mg/ml sucrose octasulfate,formation of granulation tissue densely populated with fibroblasts and highly vascularized with new capillary growth
same,Depth (prestudy),"[2]; Patient 001, 10 mg/ml",0.5 cm
same,Results,"[2]; Patient 001, 10 mg/ml in water, 30 days",no reduction in ulcer depth
same,Depth (after treatment),"[2]; Patient 001, 10 mg/ml, 30 days",0.5 cm
same,Depth (prestudy),"[2]; Patient 002, 1 mg/ml",3.0 cm
same,Results,"[2]; Patient 002, 1 mg/ml in water, 30 days",reduction in ulcer depth
same,Depth (after treatment),"[2]; Patient 002, 1 mg/ml, 30 days",1.5 cm
same,Depth (prestudy),"[2]; Patient 003, 0.1 mg/ml",0.5 cm
same,Results,"[2]; Patient 003, 0.1 mg/ml in water, 30 days",some reduction in ulcer depth
same,Depth (after treatment),"[2]; Patient 003, 0.1 mg/ml, 30 days",0.3 cm
same,Depth (prestudy),"[2]; Patient 005, 10 mg/ml",2.8 cm
same,Results,"[2]; Patient 005, 10 mg/ml in water, three weeks",reduction in ulcer depth
same,Depth (after treatment),"[2]; Patient 005, 10 mg/ml, after 3 weeks of treatment",1.6 cm
